Tests used:
Test in all cases: KinaseProfiler off-target kinase profiling
Assay type in all cases: biochemical
Details in all cases: 10 μM, ATP near Km
[1] = biological target: Bmx (Homo sapiens (Human), UniProt P51813)
Procedure: (§1) Representative compounds (Examples 12, 32, 26 and 2) of the invention were tested for off-target kinase activity at a concentration of 10 μM by Millipore, Inc. in their KinaseProfiler™ service against all the kinases available in their full kinase panel. Compounds were run in duplicate at a concentration of ATP near the Km for each individual kinase according to Millipore's specifications. The results are shown in Table B. Data are reported as percent of control (POC) and are the average of the two replicates.

[2] = biological target: BrSK2 (Homo sapiens (Human), UniProt Q8IWQ3)
Procedure: as §1

[3] = biological target: CAMK1 (Homo sapiens (Human), UniProt Q14012)
Procedure: as §1

[4] = biological target: CAMK2b (Homo sapiens (Human), UniProt Q13554)
Procedure: as §1

[5] = biological target: CDK2/cyclinE (Homo sapiens (Human), UniProt P24941)
Procedure: as §1

[6] = biological target: CDK3/cyclinE (Homo sapiens (Human), UniProt Q00526)
Procedure: as §1

[7] = biological target: CDK5/p25 (Homo sapiens (Human), UniProt Q00535)
Procedure: as §1

[8] = biological target: CLK2 (Homo sapiens (Human), UniProt P49760)
Procedure: as §1

[9] = biological target: ERK2 (Homo sapiens (Human), UniProt P28482)
Procedure: as §1

[10] = biological target: EphA1 (Homo sapiens (Human), UniProt P21709)
Procedure: as §1

[11] = biological target: EphB2 (Homo sapiens (Human), UniProt P29323)
Procedure: as §1

[12] = biological target: FAK (Homo sapiens (Human), UniProt Q05397)
Procedure: as §1

[13] = biological target: FAK2 (Homo sapiens (Human), UniProt Q14289)
Procedure: as §1

[14] = biological target: FGFR1 (Homo sapiens (Human), UniProt P11362)
Procedure: as §1

[15] = biological target: Fms (Homo sapiens (Human), UniProt P07333)
Procedure: as §1

[16] = biological target: GSK3alpha (Homo sapiens (Human), UniProt P49840)
Procedure: as §1

[17] = biological target: HIPK2 (Homo sapiens (Human), UniProt Q9H2X6)
Procedure: as §1

[18] = biological target: IGF-1R Activated (Homo sapiens (Human), UniProt P08069)
Procedure: as §1

[19] = biological target: IR Activated (Homo sapiens (Human), UniProt P06213)
Procedure: as §1

[20] = biological target: IRAK1 (Homo sapiens (Human), UniProt P51617)
Procedure: as §1

[21] = biological target: Lck (Homo sapiens (Human), UniProt P06239)
Procedure: as §1

[22] = biological target: MAPKAP-K3 (Homo sapiens (Human), UniProt Q16644)
Procedure: as §1

[23] = biological target: MEK1 (Homo sapiens (Human), UniProt Q02750)
Procedure: as §1

[24] = biological target: MELK (Homo sapiens (Human), UniProt Q14680)
Procedure: as §1

[25] = biological target: MRCKalpha (Homo sapiens (Human), UniProt Q5VT25)
Procedure: as §1

[26] = biological target: MSSK1 (Homo sapiens (Human), UniProt Q9UPE1)
Procedure: as §1

[27] = biological target: MST1 (Homo sapiens (Human), UniProt Q13043)
Procedure: as §1

[28] = biological target: MST2 (Homo sapiens (Human), UniProt Q13188)
Procedure: as §1

[29] = biological target: PKCalpha (Homo sapiens (Human), UniProt P17252)
Procedure: as §1

[30] = biological target: PKCbetaII (Homo sapiens (Human), UniProt P05771)
Procedure: as §1

[31] = biological target: PKCeta (Homo sapiens (Human), UniProt P24723)
Procedure: as §1

[32] = biological target: PTK5 (Homo sapiens (Human), UniProt P42685)
Procedure: as §1

[33] = biological target: PTK6 (Homo sapiens (Human), UniProt Q13882)
Procedure: as §1

[34] = biological target: RIPK2 (Homo sapiens (Human), UniProt O43353)
Procedure: as §1

[35] = biological target: Ret (Homo sapiens (Human), UniProt P07949)
Procedure: as §1

[36] = biological target: Rsk4 (Homo sapiens (Human), UniProt Q9UK32)
Procedure: as §1

[37] = biological target: TAO3 (Homo sapiens (Human), UniProt Q9H2K8)
Procedure: as §1

[38] = biological target: Tie2 (Homo sapiens (Human), UniProt Q02763)
Procedure: as §1

[39] = biological target: Txk (Homo sapiens (Human), UniProt P42681)
Procedure: as §1

Bmx, sequence (P51813 whole entry): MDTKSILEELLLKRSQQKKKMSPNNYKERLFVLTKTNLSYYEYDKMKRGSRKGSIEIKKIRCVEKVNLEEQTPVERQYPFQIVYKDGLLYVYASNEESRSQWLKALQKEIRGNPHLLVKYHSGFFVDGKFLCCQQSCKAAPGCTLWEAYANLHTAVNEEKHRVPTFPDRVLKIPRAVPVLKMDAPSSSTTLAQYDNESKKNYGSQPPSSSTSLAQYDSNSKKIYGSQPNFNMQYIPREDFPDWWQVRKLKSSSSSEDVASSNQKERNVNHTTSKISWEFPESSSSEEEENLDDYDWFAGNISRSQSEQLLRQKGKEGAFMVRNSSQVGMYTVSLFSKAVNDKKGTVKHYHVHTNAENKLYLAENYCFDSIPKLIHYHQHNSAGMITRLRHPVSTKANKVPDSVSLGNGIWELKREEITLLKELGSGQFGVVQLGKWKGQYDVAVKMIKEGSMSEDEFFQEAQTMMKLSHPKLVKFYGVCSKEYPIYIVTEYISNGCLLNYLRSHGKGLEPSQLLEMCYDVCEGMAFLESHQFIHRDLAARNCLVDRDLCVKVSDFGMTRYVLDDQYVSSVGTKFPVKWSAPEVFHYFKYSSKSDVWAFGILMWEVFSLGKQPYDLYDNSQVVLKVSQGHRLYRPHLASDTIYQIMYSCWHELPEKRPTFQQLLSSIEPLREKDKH
EphA1, sequence (P21709 26-976): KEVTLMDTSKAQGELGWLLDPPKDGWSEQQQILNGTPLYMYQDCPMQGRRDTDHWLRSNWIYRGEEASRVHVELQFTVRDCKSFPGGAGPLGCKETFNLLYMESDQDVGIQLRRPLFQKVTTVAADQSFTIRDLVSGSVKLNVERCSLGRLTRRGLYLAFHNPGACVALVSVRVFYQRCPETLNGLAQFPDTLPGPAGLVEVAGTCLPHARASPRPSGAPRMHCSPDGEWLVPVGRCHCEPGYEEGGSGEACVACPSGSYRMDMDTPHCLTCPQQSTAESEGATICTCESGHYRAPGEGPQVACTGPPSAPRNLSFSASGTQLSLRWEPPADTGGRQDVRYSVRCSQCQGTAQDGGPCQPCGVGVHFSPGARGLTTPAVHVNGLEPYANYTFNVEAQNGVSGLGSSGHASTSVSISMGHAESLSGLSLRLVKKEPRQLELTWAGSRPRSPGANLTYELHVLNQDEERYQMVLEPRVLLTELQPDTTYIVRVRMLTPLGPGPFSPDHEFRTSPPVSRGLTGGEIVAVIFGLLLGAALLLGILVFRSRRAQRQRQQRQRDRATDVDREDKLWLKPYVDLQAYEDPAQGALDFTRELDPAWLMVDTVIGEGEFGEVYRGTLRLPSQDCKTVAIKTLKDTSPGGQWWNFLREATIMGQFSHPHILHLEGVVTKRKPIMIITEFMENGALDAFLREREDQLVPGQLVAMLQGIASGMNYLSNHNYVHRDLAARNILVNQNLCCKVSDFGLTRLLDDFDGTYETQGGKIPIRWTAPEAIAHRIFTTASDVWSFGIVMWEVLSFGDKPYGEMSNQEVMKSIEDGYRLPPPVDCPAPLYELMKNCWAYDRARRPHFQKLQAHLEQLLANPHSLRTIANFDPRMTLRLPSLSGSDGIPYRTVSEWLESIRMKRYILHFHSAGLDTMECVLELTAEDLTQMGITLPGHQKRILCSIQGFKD
EphB2, sequence (P29323 19-1055): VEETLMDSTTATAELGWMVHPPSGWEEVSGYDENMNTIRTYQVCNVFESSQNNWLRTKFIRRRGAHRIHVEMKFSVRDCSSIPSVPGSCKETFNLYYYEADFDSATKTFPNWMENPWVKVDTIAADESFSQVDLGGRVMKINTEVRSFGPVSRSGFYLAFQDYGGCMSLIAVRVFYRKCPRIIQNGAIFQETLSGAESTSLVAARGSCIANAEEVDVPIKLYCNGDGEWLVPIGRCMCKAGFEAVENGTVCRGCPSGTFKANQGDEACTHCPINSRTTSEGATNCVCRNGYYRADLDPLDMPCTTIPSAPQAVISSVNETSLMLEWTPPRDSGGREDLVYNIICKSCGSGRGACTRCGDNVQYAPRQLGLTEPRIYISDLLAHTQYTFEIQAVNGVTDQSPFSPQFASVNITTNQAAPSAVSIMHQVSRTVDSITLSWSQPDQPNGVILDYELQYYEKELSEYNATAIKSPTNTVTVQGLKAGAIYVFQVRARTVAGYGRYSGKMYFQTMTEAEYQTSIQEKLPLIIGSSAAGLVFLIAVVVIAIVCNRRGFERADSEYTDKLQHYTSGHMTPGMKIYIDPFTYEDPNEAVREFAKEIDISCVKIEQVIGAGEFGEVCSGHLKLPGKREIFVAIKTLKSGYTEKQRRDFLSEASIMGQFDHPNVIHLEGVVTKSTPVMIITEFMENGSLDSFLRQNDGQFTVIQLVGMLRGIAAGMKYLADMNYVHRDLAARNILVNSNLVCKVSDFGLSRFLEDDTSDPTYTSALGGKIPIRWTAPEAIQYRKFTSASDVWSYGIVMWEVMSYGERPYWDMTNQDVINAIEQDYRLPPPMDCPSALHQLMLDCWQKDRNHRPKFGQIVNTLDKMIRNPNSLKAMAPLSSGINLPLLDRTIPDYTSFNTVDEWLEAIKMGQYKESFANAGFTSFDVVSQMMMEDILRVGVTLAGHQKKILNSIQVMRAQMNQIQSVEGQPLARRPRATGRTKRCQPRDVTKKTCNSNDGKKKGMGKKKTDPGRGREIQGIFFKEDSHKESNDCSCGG
Tie2, sequence (Q02763 23-1124): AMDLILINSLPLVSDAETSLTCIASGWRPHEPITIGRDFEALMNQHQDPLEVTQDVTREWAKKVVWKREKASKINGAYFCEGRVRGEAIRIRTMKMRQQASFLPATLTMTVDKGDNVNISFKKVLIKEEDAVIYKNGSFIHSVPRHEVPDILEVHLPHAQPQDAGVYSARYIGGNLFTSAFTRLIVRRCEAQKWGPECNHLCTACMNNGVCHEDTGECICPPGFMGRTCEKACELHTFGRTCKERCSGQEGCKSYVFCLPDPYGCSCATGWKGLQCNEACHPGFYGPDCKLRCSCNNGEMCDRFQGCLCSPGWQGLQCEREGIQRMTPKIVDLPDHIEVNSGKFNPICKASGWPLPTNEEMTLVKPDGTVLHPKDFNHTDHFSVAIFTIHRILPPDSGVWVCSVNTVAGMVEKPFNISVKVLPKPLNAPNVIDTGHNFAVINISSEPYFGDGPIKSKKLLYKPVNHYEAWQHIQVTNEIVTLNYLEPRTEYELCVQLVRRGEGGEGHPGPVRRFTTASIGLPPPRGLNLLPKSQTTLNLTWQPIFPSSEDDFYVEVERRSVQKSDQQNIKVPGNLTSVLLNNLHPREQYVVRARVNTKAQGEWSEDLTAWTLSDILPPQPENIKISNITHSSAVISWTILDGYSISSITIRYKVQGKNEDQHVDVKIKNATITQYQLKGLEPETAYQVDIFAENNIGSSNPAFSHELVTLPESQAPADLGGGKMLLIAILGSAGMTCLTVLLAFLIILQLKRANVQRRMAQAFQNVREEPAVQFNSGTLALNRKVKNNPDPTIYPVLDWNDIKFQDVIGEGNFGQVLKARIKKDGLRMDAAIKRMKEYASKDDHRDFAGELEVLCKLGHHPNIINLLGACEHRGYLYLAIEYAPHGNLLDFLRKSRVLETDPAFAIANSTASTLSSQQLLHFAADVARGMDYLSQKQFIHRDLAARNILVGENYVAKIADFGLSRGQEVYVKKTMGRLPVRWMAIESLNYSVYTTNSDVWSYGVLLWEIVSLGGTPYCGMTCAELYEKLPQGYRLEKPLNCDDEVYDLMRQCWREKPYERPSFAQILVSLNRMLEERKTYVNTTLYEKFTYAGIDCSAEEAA
MST2, sequence (Q13188 whole entry): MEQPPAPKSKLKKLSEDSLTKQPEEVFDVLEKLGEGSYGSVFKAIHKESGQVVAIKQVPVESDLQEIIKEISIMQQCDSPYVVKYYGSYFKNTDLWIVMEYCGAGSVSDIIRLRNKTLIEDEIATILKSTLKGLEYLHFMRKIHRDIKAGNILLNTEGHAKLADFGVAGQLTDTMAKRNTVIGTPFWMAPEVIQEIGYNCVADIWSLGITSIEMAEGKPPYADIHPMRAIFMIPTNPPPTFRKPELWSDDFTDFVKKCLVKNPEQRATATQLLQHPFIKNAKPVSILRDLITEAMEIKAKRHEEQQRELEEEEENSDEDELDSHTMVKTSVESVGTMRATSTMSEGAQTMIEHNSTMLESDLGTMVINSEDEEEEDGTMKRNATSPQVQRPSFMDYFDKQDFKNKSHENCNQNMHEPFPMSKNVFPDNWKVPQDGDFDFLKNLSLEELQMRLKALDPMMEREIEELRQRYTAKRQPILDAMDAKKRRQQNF
IGF-1R Activated, sequence (P08069 959-1367 limits assumed): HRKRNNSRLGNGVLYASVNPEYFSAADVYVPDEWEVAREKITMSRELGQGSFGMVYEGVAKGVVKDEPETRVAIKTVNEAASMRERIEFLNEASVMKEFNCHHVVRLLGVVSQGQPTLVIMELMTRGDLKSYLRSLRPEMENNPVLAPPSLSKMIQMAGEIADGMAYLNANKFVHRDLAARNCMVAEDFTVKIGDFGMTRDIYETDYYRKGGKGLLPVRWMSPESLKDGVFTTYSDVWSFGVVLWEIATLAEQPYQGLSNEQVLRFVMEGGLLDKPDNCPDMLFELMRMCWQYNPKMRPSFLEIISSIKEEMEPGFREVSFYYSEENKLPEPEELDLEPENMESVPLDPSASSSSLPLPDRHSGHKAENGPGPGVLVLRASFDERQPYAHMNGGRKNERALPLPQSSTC
MEK1, sequence (Q02750 whole entry): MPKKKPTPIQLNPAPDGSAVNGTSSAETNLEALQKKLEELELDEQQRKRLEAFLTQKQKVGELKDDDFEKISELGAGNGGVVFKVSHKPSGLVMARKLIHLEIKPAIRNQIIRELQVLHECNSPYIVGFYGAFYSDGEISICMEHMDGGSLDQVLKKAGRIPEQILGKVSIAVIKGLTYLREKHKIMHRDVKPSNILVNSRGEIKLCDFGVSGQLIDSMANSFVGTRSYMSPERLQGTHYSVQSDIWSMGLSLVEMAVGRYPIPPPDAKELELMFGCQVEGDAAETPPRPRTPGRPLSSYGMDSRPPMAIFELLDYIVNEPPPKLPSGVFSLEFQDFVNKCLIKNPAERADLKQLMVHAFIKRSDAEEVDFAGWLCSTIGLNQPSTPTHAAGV

| Avg. POC [1] [POC] | Avg. POC [2] [POC] | Avg. POC [3] [POC] | Avg. POC [4] [POC] | Avg. POC [5] [POC] | Avg. POC [6] [POC] | Avg. POC [7] [POC] | Avg. POC [8] [POC] | Avg. POC [9] [POC] | Avg. POC [10] [POC] | Avg. POC [11] [POC] | Avg. POC [12] [POC] | Avg. POC [13] [POC] | Avg. POC [14] [POC] | Avg. POC [15] [POC] | Avg. POC [16] [POC] | Avg. POC [17] [POC] | Avg. POC [18] [POC] | Avg. POC [19] [POC] | Avg. POC [20] [POC] | Structure (SMILES) | further results |
| --- | --- | --- | --- | --- | --- | --- | --- | --- | --- | --- | --- | --- | --- | --- | --- | --- | --- | --- | --- | --- | --- |
| 113 | 139.5 | 109.5 | 106.5 | 116.5 | 105.5 | 107.5 | 115.5 | 112.5 | 85 | 125 | 116.5 | 120 | 114 | 82 | 123.5 | 97 | 95 | 103 | 107 | Cc1c(-c2cnn(C)c2)nn(-c2ccccc2)c1NC(=O)N[C@H]1CCCc2ccccc21 [Example 2, (S)-1-(1′,4-dimethyl-1-phenyl-1H,1′H-3,4′-bipyrazol-5-yl)-3-(1,2,3,4-tetrahydronaphthalen-1-yl)urea] | Avg. POC [21]: 97.5 POC; Avg. POC [22]: 128 POC; Avg. POC [23]: 100.5 POC; Avg. POC [24]: 142 POC; Avg. POC [25]: 127.5 POC; Avg. POC [26]: 116 POC; Avg. POC [27]: 111.5 POC; Avg. POC [28]: 110.5 POC; Avg. POC [29]: 96 POC; Avg. POC [30]: 95.5 POC; Avg. POC [31]: 107 POC; Avg. POC [32]: 122 POC; Avg. POC [33]: 129 POC; Avg. POC [34]: 108 POC; Avg. POC [35]: 118.5 POC; Avg. POC [36]: 140 POC; Avg. POC [37]: 111 POC; Avg. POC [38]: 126 POC; Avg. POC [39]: 125 POC |
| 115.5 | 147 | 102 | 106 | 96.5 | 98.5 | 104 | 100 | 106.5 | 100 | 112 | 104 | 111 | 90 | 91 | 119.5 | 91.5 | 102.5 | 109 | 102.5 | Cc1c(-c2cnn(C)c2)nn(-c2ccccc2)c1NC(=O)NC1CCOc2cc(F)ccc21 (stereo not drawn) [Example 12, 1-(1′,4-dimethyl-1-phenyl-1H,1′H-[3,4′-bipyrazol]-5-yl)-3-(7-fluorochroman-4-yl)urea] | Avg. POC [21]: 92 POC; Avg. POC [22]: 112 POC; Avg. POC [23]: 106.5 POC; Avg. POC [24]: 67 POC; Avg. POC [25]: 139 POC; Avg. POC [26]: 112.5 POC; Avg. POC [27]: 92 POC; Avg. POC [28]: 106.5 POC; Avg. POC [29]: 104 POC; Avg. POC [30]: 100 POC; Avg. POC [31]: 100 POC; Avg. POC [32]: 100 POC; Avg. POC [33]: 125.5 POC; Avg. POC [34]: 99 POC; Avg. POC [35]: 85 POC; Avg. POC [36]: 101 POC; Avg. POC [37]: 99 POC; Avg. POC [38]: 104.5 POC; Avg. POC [39]: 139 POC |
| 109.5 | 118 | 106 | 107 | 97.5 | 101.5 | 109 | 108.5 | 107.5 | 101 | 109.5 | 105 | 104.5 | 104.5 | 96 | 115.5 | 103 | 98 | 106 | 110.5 | Cc1c(-c2ccc(=O)n(C)c2)nn(-c2ccccc2)c1NC(=O)NC1CN(CC(F)(F)F)Cc2ccccc21 (stereo not drawn) [Example 26, 1-(4-methyl-3-(1-methyl-6-oxo-1,6-dihydropyridin-3-yl)-1-phenyl-1H-pyrazol-5-yl)-3-(2-(2,2,2-trifluoroethyl)-1,2,3,4-tetrahydroisoquinolin-4-yl)urea] | Avg. POC [21]: 96.5 POC; Avg. POC [22]: 108.5 POC; Avg. POC [23]: 97 POC; Avg. POC [24]: 86 POC; Avg. POC [25]: 124.5 POC; Avg. POC [26]: 120.5 POC; Avg. POC [27]: 102 POC; Avg. POC [28]: 111 POC; Avg. POC [29]: 107.5 POC; Avg. POC [30]: 99 POC; Avg. POC [31]: 98 POC; Avg. POC [32]: 110 POC; Avg. POC [33]: 121 POC; Avg. POC [34]: 98 POC; Avg. POC [35]: 106.5 POC; Avg. POC [36]: 99.5 POC; Avg. POC [37]: 109 POC; Avg. POC [38]: 106.5 POC; Avg. POC [39]: 119 POC |
| 106.5 | 128.5 | 100 | 102.5 | 106 | 102.5 | 106 | 105.5 | 128.5 | 114 | 96.5 | 116.5 | 101.5 | 104.5 | 102 | 112.5 | 99.5 | 112.5 | 111.5 | 113.5 | COCc1ccc2c(c1)C(NC(=O)Nc1c(C)c(-c3cnn(C)c3)nn1-c1ccccc1)COC2 (stereo not drawn) [Example 32, 1-(1′,4-dimethyl-1-phenyl-1H,1′H-[3,4′-bipyrazol]-5-yl)-3-(6-(methoxymethyl)isochroman-4-yl)urea] | Avg. POC [21]: 104.5 POC; Avg. POC [22]: 105 POC; Avg. POC [23]: 102 POC; Avg. POC [24]: 98 POC; Avg. POC [25]: 131 POC; Avg. POC [26]: 105.5 POC; Avg. POC [27]: 105.5 POC; Avg. POC [28]: 111.5 POC; Avg. POC [29]: 110 POC; Avg. POC [30]: 100.5 POC; Avg. POC [31]: 111.5 POC; Avg. POC [32]: 104 POC; Avg. POC [33]: 100 POC; Avg. POC [34]: 99.5 POC; Avg. POC [35]: 100.5 POC; Avg. POC [36]: 95 POC; Avg. POC [37]: 105 POC; Avg. POC [38]: 121 POC; Avg. POC [39]: 127 POC |

— patent US10351575B2, “Bicyclic urea, thiourea, guanidine and cyanoguanidine compounds useful for the treatment of pain” (Array BioPharma Inc., priority 2012, dated 2019)
